This is an account of results in patent US9598416B2, “Substituted benzothienyl-pyrrolotriazines and uses thereof in the treatment cancer” (Bayer Intellectual Property GmbH, priority 2011, dated 2017).

Structures can show the parent of a compound that is named as a salt.

The target of the first assay is human FGFR-3 (Homo sapiens (Human), UniProt P22607). Put plainly: FGFR-3 kinase assay (TR-FRET). Type of assay: biochemical. Conditions: 10 μM ATP; compounds of the invention. In general terms: Time-resolved FRET reads energy transfer from a long-lived donor to a nearby acceptor.
Sequence of human FGFR-3 (P22607 397-806): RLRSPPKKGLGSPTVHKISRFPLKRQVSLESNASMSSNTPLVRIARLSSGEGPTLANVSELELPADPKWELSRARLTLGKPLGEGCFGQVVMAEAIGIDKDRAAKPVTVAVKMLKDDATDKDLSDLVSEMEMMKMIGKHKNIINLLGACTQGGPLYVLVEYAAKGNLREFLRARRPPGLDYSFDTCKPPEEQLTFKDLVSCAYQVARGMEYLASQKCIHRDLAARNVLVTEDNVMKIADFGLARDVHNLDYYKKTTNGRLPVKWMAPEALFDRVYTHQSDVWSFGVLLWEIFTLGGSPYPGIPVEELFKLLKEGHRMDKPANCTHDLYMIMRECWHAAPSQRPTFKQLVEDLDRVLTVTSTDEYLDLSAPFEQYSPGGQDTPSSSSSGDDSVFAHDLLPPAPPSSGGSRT
One may read the IC50 as the concentration that gives 50% inhibition. A high value points to lower potency. `COc1cc(C)cc2cc(-c3c(CN(C)C4CCS(=O)(=O)C4)cn4ncnc(N)c34)sc12` (centres unmarked) [Example 57]: the IC50 was determined as 3 nM.
In turn, `COc1cc(C)cc2cc(-c3c(CN4CCC(C(N)=O)CC4)cn4ncnc(N)c34)sc12` [Example 64] had a half-inhibitory concentration (IC50) of 1.1 nM. This IC50 is about 2.7-fold lower than that of the compound before.
On the same count and under the same terms, the value for `COc1cc(C)cc2cc(-c3c(CN4CCCCC4)cn4ncnc(N)c34)sc12` [Example 51] was 0.7 nM; that for `COc1cc(C)cc2cc(-c3c(CN4CC[C@H](N(C)C)C4)cn4ncnc(N)c34)sc12` [Example 66] was 0.5 nM.
On the same count and under the same terms, next, `COc1cc(C)cc2cc(-c3c(COC[C@H](C)O)cn4ncnc(N)c34)sc12` [Example 2, (2S)-1-{[4-Amino-5-(7-methoxy-5-methyl-1-benzothiophen-2-yl)pyrrolo[2,1-f][1,2,4]triazin-6-yl]-methoxy}propan-2-ol]: 2.2 nM; `COc1cc(C)cc2cc(-c3c(CN4CCCC4C(N)=O)cn4ncnc(N)c34)sc12` (racemic) [Example 19, rac-1-{[4-Amino-5-(7-methoxy-5-methyl-1-benzothiophen-2-yl)pyrrolo[2,1-f][1,2,4]triazin-6-yl]-methyl}prolinamide dihydrochloride]: 11.2 nM.
The same measure, in the same setting: the value for `COc1cc(C)cc2cc(-c3c(CN4CCC(F)(F)C4)cn4ncnc(N)c34)sc12` [Example 63] was 3 nM.
As for `COc1cc(C)cc2cc(-c3c(CN4CCCC(C(N)=O)C4)cn4ncnc(N)c34)sc12` (centres unmarked) [Example 69], the midpoint of inhibition, the IC50, lay at 4.4 nM.
Compound `COc1cc(C)cc2cc(-c3c(CN4CCOCC4)cn4ncnc(N)c34)sc12` [Example 23, 5-(7-Methoxy-5-methyl-1-benzothiophen-2-yl)-6-(morpholin-4-ylmethyl)pyrrolo[2,1-f][1,2,4]triazin-4-amine] yielded an IC50 of 17.4 nM.
Consider `COc1cc(C)cc2cc(-c3c(CN4CCCC(N(C)C)C4)cn4ncnc(N)c34)sc12` (centres unmarked) [Example 67], for which 0.6 nM corresponded to half-maximal inhibition (IC50).
The same measure, in the same setting: the value for `COc1cc(C)cc2cc(-c3c(CNC4CC4)cn4ncnc(N)c34)sc12` [Example 48] was 3.6 nM; that for `CCOC(=O)COCc1cn2ncnc(N)c2c1-c1cc2cc(C)cc(OC)c2s1` [Example 4, Ethyl {[4-amino-5-(7-methoxy-5-methyl-1-benzothiophen-2-yl)pyrrolo[2,1-f][1,2,4]triazin-6-yl]-methoxy}acetate] was 49.9 nM.
`COc1cc(C)cc2cc(-c3c(CN[C@H]4CCNC4=O)cn4ncnc(N)c34)sc12` [Example 27, (3S)-3-({[4-Amino-5-(7-methoxy-5-methyl-1-benzothiophen-2-yl)pyrrolo[2,1-f][1,2,4]triazin-6-yl]-methyl}amino)pyrrolidin-2-one dihydrochloride] yielded a 50% inhibitory concentration (IC50) of 0.5 nM.
Same read-out and setting: next, `COc1cc(C)cc2cc(-c3c(CN4CCCOCC4)cn4ncnc(N)c34)sc12` [Example 54]: 2.3 nM.
In turn, `COc1cc(C)cc2cc(-c3c(COCCCO)cn4ncnc(N)c34)sc12` [Example 1, 3-{[4-Amino-5-(7-methoxy-5-methyl-1-benzothiophen-2-yl)pyrrolo[2,1-f][1,2,4]triazin-6-yl]-methoxy}propan-1-ol hydrochloride] showed a concentration for half-maximal inhibition (IC50) of 18.2 nM. Compared with the last compound, the IC50 is about 7.9-fold higher.
On the same count and under the same terms, next, `COc1cc(C)cc2cc(-c3c(COCCO)cn4ncnc(N)c34)sc12` [Example 7, 2-{[4-Amino-5-(7-methoxy-5-methyl-1-benzothiophen-2-yl)pyrrolo[2,1-f][1,2,4]triazin-6-yl]-methoxy}ethanol hydrochloride]: 5.8 nM; `COc1cc(C)cc2cc(-c3c(COCCN4CCCC4)cn4ncnc(N)c34)sc12` [Example 43]: 10.7 nM.
In turn, `COc1cc(C)cc2cc(-c3c(CN4CCC(OC)CC4)cn4ncnc(N)c34)sc12` [Example 60] registered an IC50 of 12.5 nM.
In turn, `COc1cc(C)cc2cc(-c3c(COCCN)cn4ncnc(N)c34)sc12` [Example 8, 6-[(2-Aminoethoxy)methyl]-5-(7-methoxy-5-methyl-1-benzothiophen-2-yl)pyrrolo[2,14][1,2,4]-triazin-4-amine dihydrochloride] came in with a concentration for half-maximal inhibition (IC50) of 0.2 nM.
Compound `COc1cc(C)cc2cc(-c3c(CNCC(C)(C)O)cn4ncnc(N)c34)sc12` [Example 17, 1-({[4-Amino-5-(7-methoxy-5-methyl-1-benzothiophen-2-yl)pyrrolo[2,1-f][1,2,4]triazin-6-yl]-methyl}amino)-2-methylpropan-2-ol dihydrochloride] returned an IC50 of 1.8 nM.
Same read-out and setting: next, `COc1cc(C)cc2cc(-c3c(CN(C)CC(C)OC)cn4ncnc(N)c34)sc12` (centres unmarked) [Example 59]: 4 nM; `COc1cc(C)cc2cc(-c3c(CN(C)CC(F)(F)F)cn4ncnc(N)c34)sc12` [Example 61]: 14.6 nM.
On the same count and under the same terms, next, `COc1cc(C)cc2cc(-c3c(CN4CCOC(C)C4)cn4ncnc(N)c34)sc12` (centres unmarked) [Example 76]: 4.9 nM; `COc1cc(C)cc2cc(-c3c(CN4CCCN(C)CC4)cn4ncnc(N)c34)sc12` [Example 68]: 0.8 nM.
`COc1cc(C)cc2cc(-c3c(CNC4CCS(=O)(=O)C4)cn4ncnc(N)c34)sc12` (centres unmarked) [Example 72] yielded an IC50 of 5.5 nM.
For the compound `COc1cc(C)cc2cc(-c3c(CN4CC(OC)C4)cn4ncnc(N)c34)sc12` [Example 53], the IC50 was found to be 15.1 nM.
Compound `COCCN(Cc1cn2ncnc(N)c2c1-c1cc2cc(C)cc(OC)c2s1)C(C)C` [Example 49] gave an IC50 of 14.2 nM.
On the same count and under the same terms, the value for `COc1cc(OC)c2sc(-c3c(CN4CCNC(=O)C4)cn4ncnc(N)c34)cc2c1` [Example 33, 4-{[4-Amino-5-(5,7-dimethoxy-1-benzothiophen-2-yl)pyrrolo[2,1-f][1,2,4]triazin-6-yl]methyl}-piperazin-2-one] was 1.8 nM; that for `COc1cc(C)cc2cc(-c3c(CN4CCOC(C)(C)C4)cn4ncnc(N)c34)sc12` [Example 52] was 3.8 nM.
In the case of `COc1cc(C)cc2cc(-c3c(COCC#N)cn4ncnc(N)c34)sc12` [Example 40], 9.1 nM corresponded to half-maximal inhibition (IC50).
Compound `COc1cc(C)cc2cc(-c3c(CN4CCN(C5CC5)CC4)cn4ncnc(N)c34)sc12` [Example 58] displayed a 50% inhibitory concentration (IC50) of 6.2 nM.
The same measure, in the same setting: next, `COc1cc(C)cc2cc(-c3c(COCCN4CCOCC4)cn4ncnc(N)c34)sc12` [Example 42]: 30 nM; `COCCN(C)Cc1cn2ncnc(N)c2c1-c1cc2cc(C)cc(OC)c2s1` [Example 70]: 7.4 nM; `COc1cc(C)cc2cc(-c3c(CN4CCNC(=O)C4C)cn4ncnc(N)c34)sc12` (centres unmarked) [Example 55]: 1.4 nM.
Same read-out and setting: the value for `COc1cc(C)cc2cc(-c3c(COCCCN(C)C)cn4ncnc(N)c34)sc12` [Example 45] was 24.8 nM; that for `COc1cc(C)cc2cc(-c3c(COCCN4CCCCC4)cn4ncnc(N)c34)sc12` [Example 44] was 9.3 nM.
On the same count and under the same terms, the value for `COc1cc(C)cc2cc(-c3c(CN4CCCC4)cn4ncnc(N)c34)sc12` [Example 47] was 1 nM; that for `COc1cc(C)cc2cc(-c3c(CN4CCS(=O)(=O)CC4)cn4ncnc(N)c34)sc12` [Example 77] was 15.3 nM.
`COc1cc(C)cc2cc(-c3c(CN4CCN(C)CC4)cn4ncnc(N)c34)sc12` [Example 50] gave a half-maximal inhibitory concentration (IC50) of 0.1 nM.
Still for that read-out and setting: next, `COc1cc(C)cc2cc(-c3c(CN4CNC(=O)C4)cn4ncnc(N)c34)sc12` [Example 56]: 3.1 nM; `COc1cc(C)cc2cc(-c3c(CN4CC[C@@H](N(C)C)C4)cn4ncnc(N)c34)sc12` [Example 65]: 0.6 nM; `COc1cc(C)cc2cc(-c3c(COCCCC#N)cn4ncnc(N)c34)sc12` [Example 41]: 12.7 nM.
Consider `CCC(C)NCc1cn2ncnc(N)c2c1-c1cc2cc(C)cc(OC)c2s1` (centres unmarked) [Example 74], for which the IC50 was found to be 5 nM.
In the case of `COc1cc(C)cc2cc(-c3c(CNC4CCOC4)cn4ncnc(N)c34)sc12` (centres unmarked) [Example 73], the IC50 is 2.3 nM. This IC50 lies about 2.2-fold lower than the previous one.
In the case of `COc1cc(C)cc2cc(-c3c(CN4CCCC(OC)C4)cn4ncnc(N)c34)sc12` (centres unmarked) [Example 62], the concentration for half-maximal inhibition (IC50) was determined as 2.6 nM.

For a further assay, the target named is human mTOR (Homo sapiens (Human), UniProt P42345). Put plainly: mTOR kinase assay (TR-FRET, for comparative purposes). In kind it is biochemical. Conditions: 1 μM test compound; mean inhibition values. From the text: mTOR inhibitory activity of the compounds of the present invention was quantified employing the TR-FRET based mTOR assay as described in the following paragraphs: Recombinant fusion tagged mTOR protein [glutathione-S-transferase (GST) fused to human mTOR amino acids from 1360 to 2549], expressed in insect cells and purified by glutathione-sepharose affinity chromatography, was purchased from Invitrogen (Cat.-No. 4753) and used as enzyme. As substrate for the kinase reaction, a recombinant fusion protein of GFP and 4E-BP1 (purchased from Invitrogen, Cat.-No. PV4759) was used. Test compounds were dissolved in DMSO to generate 10 mM stock solutions. […] The resulting mixture was incubated for 1 h at 22° C. to allow formation of the complex between the phosphorylated substrate and the Tb-chelate labelled antibody. Subsequently, the amount of phosphorylated substrate was evaluated by measurement of the resonance energy transfer from the Tb-chelate to the GFP. For this, the fluorescence emissions at 495 nm and 520 nm after excitation at 340 nm was measured in an Envision 2104 multilabel reader (Perkin-Elmer). The ratio of the emissions at 520 nm and at 495 nm was taken as the measure for the amount of phosphorylated substrate.
Sequence of human mTOR (P42345 1360-2549): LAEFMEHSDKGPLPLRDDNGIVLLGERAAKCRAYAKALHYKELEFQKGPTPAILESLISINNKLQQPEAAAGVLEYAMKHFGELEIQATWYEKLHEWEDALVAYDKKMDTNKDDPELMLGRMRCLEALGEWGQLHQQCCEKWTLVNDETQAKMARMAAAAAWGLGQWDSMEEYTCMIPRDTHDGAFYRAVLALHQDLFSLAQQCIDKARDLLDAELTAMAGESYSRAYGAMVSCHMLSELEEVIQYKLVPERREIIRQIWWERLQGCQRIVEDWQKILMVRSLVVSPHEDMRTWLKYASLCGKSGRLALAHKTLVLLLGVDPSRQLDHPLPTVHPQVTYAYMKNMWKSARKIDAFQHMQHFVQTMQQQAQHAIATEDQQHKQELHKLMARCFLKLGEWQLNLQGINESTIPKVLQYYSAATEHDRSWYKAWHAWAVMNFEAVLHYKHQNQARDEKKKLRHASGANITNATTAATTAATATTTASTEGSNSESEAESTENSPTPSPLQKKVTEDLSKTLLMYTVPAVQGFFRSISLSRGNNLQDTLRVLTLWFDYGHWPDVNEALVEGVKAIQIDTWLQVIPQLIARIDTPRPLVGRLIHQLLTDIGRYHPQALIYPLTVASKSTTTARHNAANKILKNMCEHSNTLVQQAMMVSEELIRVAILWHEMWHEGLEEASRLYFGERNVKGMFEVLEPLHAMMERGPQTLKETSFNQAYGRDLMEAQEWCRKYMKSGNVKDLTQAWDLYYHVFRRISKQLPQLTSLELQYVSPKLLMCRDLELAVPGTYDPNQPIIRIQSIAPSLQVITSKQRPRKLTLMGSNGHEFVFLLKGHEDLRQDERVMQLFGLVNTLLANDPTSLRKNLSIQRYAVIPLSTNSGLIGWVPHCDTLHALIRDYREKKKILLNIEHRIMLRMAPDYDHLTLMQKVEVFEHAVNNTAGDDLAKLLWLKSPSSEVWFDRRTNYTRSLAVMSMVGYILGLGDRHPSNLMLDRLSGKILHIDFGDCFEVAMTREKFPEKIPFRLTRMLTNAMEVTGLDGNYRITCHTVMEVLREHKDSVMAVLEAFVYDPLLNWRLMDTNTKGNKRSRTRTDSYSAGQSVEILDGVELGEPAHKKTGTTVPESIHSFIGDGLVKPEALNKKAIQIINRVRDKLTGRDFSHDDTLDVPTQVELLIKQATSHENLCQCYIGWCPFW
Turning to `COc1cc(C)cc2cc(-c3c(CNCC(C)O)cn4ncnc(N)c34)sc12` (racemic) [Example 26, rac-1-({[4-Amino-5-(7-methoxy-5-methyl-1-benzothiophen-2-yl)pyrrolo[2,1-f][1,2,4]triazin-6-yl]-methyl}amino)propan-2-ol dihydrochloride], the “mTOR % inhibition @ 1 μM” value is reported as “no inhib. effect detect”.
As for `COc1cc(C)cc2cc(-c3c(CNCC(C)(C)O)cn4ncnc(N)c34)sc12` [Example 17, 1-({[4-Amino-5-(7-methoxy-5-methyl-1-benzothiophen-2-yl)pyrrolo[2,1-f][1,2,4]triazin-6-yl]-methyl}amino)-2-methylpropan-2-ol dihydrochloride], the “mTOR % inhibition @ 1 μM” value is listed as “no inhib. effect detect”.
As to `COc1cc(C)cc2cc(-c3c(CO)cn4ncnc(N)c34)sc12` [Example 32, [4-Amino-5-(7-methoxy-5-methyl-1-benzothiophen-2-yl)pyrrolo[2,1-f][1,2,4]triazin-6-yl]methanol], the “mTOR % inhibition @ 1 μM” value is given as “no inhib. effect detect”.

Staying with this assay, now noted: read-out: mTOR % inhibition @ 1 μM.
By inhibition is commonly meant the percentage by which the read-out fell short of the control. With `COc1cc(C)cc2cc(-c3c(CN4CCCC4C(N)=O)cn4ncnc(N)c34)sc12` (racemic) [Example 19, rac-1-{[4-Amino-5-(7-methoxy-5-methyl-1-benzothiophen-2-yl)pyrrolo[2,1-f][1,2,4]triazin-6-yl]-methyl}prolinamide dihydrochloride], the inhibition at 1 µM stood at 1.8%.
Take `COc1cc(C)cc2cc(-c3c(CN[C@H]4CCNC4=O)cn4ncnc(N)c34)sc12` [Example 27, (3S)-3-({[4-Amino-5-(7-methoxy-5-methyl-1-benzothiophen-2-yl)pyrrolo[2,1-f][1,2,4]triazin-6-yl]-methyl}amino)pyrrolidin-2-one dihydrochloride]: the inhibition at 1 µM turned out to be 5%.
Same read-out and setting: the value for `COc1cc(C)cc2cc(-c3c(COCCCO)cn4ncnc(N)c34)sc12` [Example 1, 3-{[4-Amino-5-(7-methoxy-5-methyl-1-benzothiophen-2-yl)pyrrolo[2,1-f][1,2,4]triazin-6-yl]-methoxy}propan-1-ol hydrochloride] was 1.9%; that for `COc1cc(C)cc2cc(-c3c(COCCO)cn4ncnc(N)c34)sc12` [Example 7, 2-{[4-Amino-5-(7-methoxy-5-methyl-1-benzothiophen-2-yl)pyrrolo[2,1-f][1,2,4]triazin-6-yl]-methoxy}ethanol hydrochloride] was 4.7%.

Still in this assay, the particulars now being: read-out: mTOR % inhibition @ 1 μM; 1 μM test compound; mean inhibition values.
For `COc1cc(C)cc2cc(-c3c(COC[C@H](C)O)cn4ncnc(N)c34)sc12` [Example 2, (2S)-1-{[4-Amino-5-(7-methoxy-5-methyl-1-benzothiophen-2-yl)pyrrolo[2,1-f][1,2,4]triazin-6-yl]-methoxy}propan-2-ol], the inhibition at 1 µM worked out at 6.1%.
The same measure, in the same setting: next, `COc1cc(C)cc2cc(-c3c(CN4CCOCC4)cn4ncnc(N)c34)sc12` [Example 23, 5-(7-Methoxy-5-methyl-1-benzothiophen-2-yl)-6-(morpholin-4-ylmethyl)pyrrolo[2,1-f][1,2,4]triazin-4-amine]: 2%; `CCOC(=O)COCc1cn2ncnc(N)c2c1-c1cc2cc(C)cc(OC)c2s1` [Example 4, Ethyl {[4-amino-5-(7-methoxy-5-methyl-1-benzothiophen-2-yl)pyrrolo[2,1-f][1,2,4]triazin-6-yl]-methoxy}acetate]: 8.4%; `COc1cc(C)cc2cc(-c3c(COCCN)cn4ncnc(N)c34)sc12` [Example 8, 6-[(2-Aminoethoxy)methyl]-5-(7-methoxy-5-methyl-1-benzothiophen-2-yl)pyrrolo[2,14][1,2,4]-triazin-4-amine dihydrochloride]: 4.7%.
